# Assay results published in publication PMC12041881, “Tailored phenyl ureas eradicate drug-resistant Mycobacterium tuberculosis by targeting mycolic acid cell wall assembly” (Chemical Science, 2025).
# “Also recorded” adds a separate entry of the source. Where two headings read alike, the source gives them in different places.
# Tests used:
# [1] = test system: M. tuberculosis H37Ra; assay: microbe, parasite or virus in culture; type: cell-based, Mycobacterium tuberculosis; conditions: for MIC: Mycobacterium tuberculosis, H37RA, read-out: MIC MTB H37Ra
# [2] = test system: WT M. tuberculosis H37Rv; assay: microbe, parasite or virus in culture; type: cell-based
# [3] = test system: three bacterial strains from the mouse microbiota (Oligo-Mouse-Microbiota); assay: MIC measurements in strains from the Oligo-Mouse-Microbiota; type: cell-based
# [4] = test system: probe-bound proteins in M. tuberculosis H37Ra cells; type: binding; conditions: for competition of 227-p1 labelling of EphF and EphD: 5 μM 227-p1, competitor in excess (25 μM 227)
# [5] = target: MmpL3 (Mycobacterium tuberculosis, UniProt P9WJV5); type: cell-based, M. tuberculosis
# MmpL3, sequence (P9WJV5 whole entry): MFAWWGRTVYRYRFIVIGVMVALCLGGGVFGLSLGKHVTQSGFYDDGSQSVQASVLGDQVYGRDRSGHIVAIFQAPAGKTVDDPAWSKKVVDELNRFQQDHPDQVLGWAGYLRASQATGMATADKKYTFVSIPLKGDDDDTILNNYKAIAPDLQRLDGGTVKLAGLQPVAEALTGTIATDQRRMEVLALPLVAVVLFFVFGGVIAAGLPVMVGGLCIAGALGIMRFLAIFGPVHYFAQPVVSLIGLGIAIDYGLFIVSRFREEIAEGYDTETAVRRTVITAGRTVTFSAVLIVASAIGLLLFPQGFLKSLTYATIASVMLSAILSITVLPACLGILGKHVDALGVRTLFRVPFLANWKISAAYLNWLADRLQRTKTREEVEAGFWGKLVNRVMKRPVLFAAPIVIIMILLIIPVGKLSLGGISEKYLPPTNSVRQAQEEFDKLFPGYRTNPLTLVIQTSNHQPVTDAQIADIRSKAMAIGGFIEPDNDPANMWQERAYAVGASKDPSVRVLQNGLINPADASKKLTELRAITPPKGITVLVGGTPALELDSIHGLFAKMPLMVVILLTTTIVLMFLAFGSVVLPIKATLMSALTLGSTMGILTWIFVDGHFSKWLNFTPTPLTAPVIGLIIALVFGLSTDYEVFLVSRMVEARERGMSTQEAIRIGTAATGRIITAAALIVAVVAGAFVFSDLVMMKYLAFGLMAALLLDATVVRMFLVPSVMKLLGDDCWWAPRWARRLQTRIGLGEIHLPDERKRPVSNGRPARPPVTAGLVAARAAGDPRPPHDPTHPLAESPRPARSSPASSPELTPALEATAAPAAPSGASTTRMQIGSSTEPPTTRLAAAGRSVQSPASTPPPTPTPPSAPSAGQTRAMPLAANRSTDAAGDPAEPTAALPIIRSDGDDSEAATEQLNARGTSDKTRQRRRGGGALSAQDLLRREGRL
# [6] = physchem; conditions: aqueous buffer, kinetic from dmso stock
# [7] = test system: MTB; assay: Checkerboard assay with ethionamide; type: cell-based, M. tuberculosis; conditions: combination with ethionamide
# [8] = test system: Mtb H37Ra proteome; type: cell-based
# [9] = test system: M. tuberculosis H37Ra cells; type: cell-based
# [10] = test system: epoxide hydrolase EphF; type: biochemical, M. tuberculosis
# [11] = test system: HeLa cells; assay: cells; type: cell-based; conditions: Homo sapiens
# [12] = in vivo; set-up: species or system CD-1 female mice; conditions: female, CD-1, mouse; for bioavailability: F
# Method: (DMA), and 95% (20% Solutol HS15 in water).
# Blood timepoints were taken
# liquid chromatography coupled to tandem mass spectrometry. Pharmacokinetic parameters were
# LC-MS/MS analytical methods for PK studies
# to create standard curves solutions.
# 10µLs of control, standard, or
# internal standards Labetalol (Sigma Aldrich). Extracts were vortexed for 5 minutes and centrifuged at
# with 75 µLs of Milli-Q deionized water.
# Multiple-reaction monitoring of […]
# Extracts were vortexed for 5 minutes
# 75 µL of extract was combined
# HPLC-MS was performed as previously specified.
# [13] = i.v. 5 mg kg^−1
# [14] = in vivo; conditions: female, CD-1, mouse
# [15] = in vitro; conditions: mouse, microsomes
# [16] = test system: M. smegmatis DSM43756; assay: MIC / in-house urea library screen against M. smegmatis; type: cell-based; conditions: read-out: MIC M. smegmatis (Msm)
# [17] = test system: MmpL3 underexpressing (−ATc) Mtb H37Rv; type: cell-based, M. tuberculosis
# [18] = test system: Mtb; conditions: strain not stated; cited from earlier work
# [19] = test system: LepB; assay: FRET assay with membrane-bound LepB; conditions: M. smegmatis membranes
# [20] = Mycobacterium tuberculosis, H37RV
# [21] = HeLa, read-out: MTT assay IC50 95% confidence interval (CI)
# [22] = Mycolicibacterium smegmatis, DSM43756
structure (smiles),measurement,setting,value
O=C(Nc1ccc(Cl)c(OC(F)(F)F)c1)NC1CCCCC1 [Compound 1],MIC,[1],3.13 µM
O=C(Nc1cc(C(F)(F)F)c(Cl)cn1)NC1CCCCC1 [Compound 2],MIC,[1],> 50 µM
CC1(NC(=O)Nc2ccc(Cl)c(C(F)(F)F)c2)CCCC1 [Compound 3],MIC MTB H37Ra,[1],0.39 µM
same,MIC,[1],0.4 µM
CC1(NC(=O)Nc2ccc(F)c(C(F)(F)F)c2)CCCC1 [Compound 4],MIC,[1],3.13 µM
CC1(NC(=O)Nc2ccccc2)CCCC1 [Compound 5],MIC,[1],25 µM
CC1(NC(=O)Nc2ccc(F)c(F)c2F)CCCC1 [Compound 6],MIC,[1],> 50 µM
CC1(NC(=O)Nc2ccc(F)c(F)c2)CCCC1 [Compound 7],MIC,[1],25 µM
CC1(NC(=O)Nc2cc(F)c(F)c(F)c2)CCCC1 [Compound 8],MIC,[1],25 µM
O=C(Nc1ccc(Cl)c(C(F)(F)F)c1)NC1CCCC1 [Compound 9],MIC MTB H37Ra,[1],3.13 µM
same,MIC,[1],3.2 µM
O=C(Nc1ccc(Cl)c(C(F)(F)F)c1)NC1CCC1 [Compound 10],MIC,[1],25 µM
O=C(Nc1ccc(Cl)c(C(F)(F)F)c1)NC1CC1 [Compound 11],MIC,[1],> 50 µM
CC1(NC(=O)Nc2ccc(Cl)c(C(F)(F)F)c2)CCCCC1 [Compound 12],MIC MTB H37Ra,[1],0.10 µM
same,MIC,[1],0.1 µM
same,IC50,[2]; [20],110 nM
same,MIC90,[2]; [20],0.2 µM
same,effect on bacteria from the Oligo-Mouse-Microbiota,[3],not affected
same,competition of 227-p1 labelling of EphF and EphD,[4],weaker competition
same,TDM/TMM ratio compared with 227,[5],even lower TDM/TMM ratios
same,solubility kinetic at 5 min,[6],12 µM
CC1CCCCC1NC(=O)Nc1ccc(Cl)c(C(F)(F)F)c1 (centres unmarked) [Compound 13],MIC,[1],0.39 µM
CC1CCCC(NC(=O)Nc2ccc(Cl)c(C(F)(F)F)c2)C1 (centres unmarked) [Compound 14],MIC,[1],0.39 µM
CC1CCC(NC(=O)Nc2ccc(Cl)c(C(F)(F)F)c2)CC1 (centres unmarked) [Compound 15],MIC,[1],0.39 µM
O=C(Nc1ccc(Cl)c(C(F)(F)F)c1)NC1(CO)CCCCC1 [Compound 16],MIC,[1],3.13 µM
O=C(Nc1ccc(Cl)c(C(F)(F)F)c1)NC12CC3CC(CC(O)(C3)C1)C2 [Compound 18],MIC,[1],6.25 µM
O=C(Nc1ccc(Cl)c(C(F)(F)F)c1)NC12CC(C1)C2 [Compound 19],MIC,[1],12.5 µM
CC1(C)OCC(NC(=O)Nc2ccc(Cl)c(C(F)(F)F)c2)CO1 [Compound 20],MIC,[1],3.13 µM
O=C(Nc1ccc(Cl)c(C(F)(F)F)c1)NC1COC2(CCC2)OC1 [Compound 21],MIC MTB H37Ra,[1],0.78 µM
same,MIC,[1],0.8 µM
same,IC50,[2]; [20],850 nM
same,MIC90,[2]; [20],1.8 µM
same,effect on bacteria from the Oligo-Mouse-Microbiota,[3],not affected; also recorded: does not kill
same,fractional inhibitory concentration (FIC) index,[7],0.83
same,competition of 227-p1 labelling of EphF and EphD,[4],weaker competition
same,"MmpL3 abundance, Student's T-test Difference DMJB-04 0.5 µM vs DMSO","[8]; full proteome, Mtb H37Ra, 0.5 µM",0.4086
same,membrane disruption (propidium iodide entry),[9],Neither 227 nor 21 disrupt the membrane
same,TDM/TMM ratio compared with 227,[5],even lower TDM/TMM ratios
same,EphF inhibition,[10],"inhibits EphF, albeit to a lesser extent"
same,IC50,[11]; [21],52 to 97 µM
same,IC50,"[11]; HeLa cells, 24 h, read-out: IC50 MTT assay",71 µM
same,estimated time above MIC,[12],approximately 16 hours
same,F,"[12]; po, 200 mg/kg",24.3%
same,AUC,"[12]; po, 200 mg/kg",45.7 µM·h
same,bioavailability,"[12]; po, 200 mg/kg",25.3%
same,AUC,"[12]; po, 400 mg/kg",73.3 µM·h
same,bioavailability,"[12]; po, 400 mg/kg",20.4%
same,CD,[13],3.38 L/kg
same,Clearance,[13],50.82 mL/(kg*min]
same,AUC,"[14]; iv, 5 mg/kg",4.58 µM·h
same,Cmax,"[14]; iv, 5 mg/kg",6.27 µM
same,half-life,"[14]; iv, 5 mg/kg",46.2 min
same,AUC,"[14]; po, 25 mg/kg",9.54 µM·h
same,Cmax,"[14]; po, 25 mg/kg",4.04 µM
same,bioavailability,"[14]; po, 25 mg/kg",42.5%
same,solubility kinetic at 5 min,[6],> 200 µM
same,half-life at 5 µM,[15],8 min
same,microsomal CLint at 5 µM,[15],88 µL/min/mg
O=C(Nc1ccc(Cl)c(C(F)(F)F)c1)NC1CCC2(CC1)OCCO2 [Compound 22],MIC,[1],1.56 to 3.13 µM
same,solubility kinetic at 5 min,[6],112 µM
CC1(NC(=O)Nc2ccc(Cl)c(C(F)(F)F)c2)COC2(CCC2)OC1 [Compound 23],MIC MTB H37Ra,[1],6.25 to 12.5 µM
same,MIC,[1],6.25 µM
same,solubility kinetic at 5 min,[6],58 µM
C#CCCC1(CCOC(=O)c2ccc(NC(=O)Nc3ccccc3)cc2)N=N1 [Compound 150-pi],MIC MTB H37Ra,[1],inactive
C#CC1(NC(=O)Nc2ccc(N=[N+]=[N-])cc2)CCCCC1 [Compound 227-p1],MIC,[1],25 µM
same,MIC,[16]; [22],6.25 µM
same,EphD and EphF enrichment by probe,"[4]; 5 μM 227-p1, Mtb",significantly enriched
C#CCCC1(CCOC(=O)c2ccc(NC(=O)NC3CCCCC3)cc2)N=N1 [Compound 227-p2],MIC,[1],> 50 µM
same,MIC,[16]; [22],> 50 µM
C#CCCC1(CCOC(=O)C2CCC(NC(=O)Nc3ccc(Cl)c(C(F)(F)F)c3)CC2)N=N1 (centres unmarked) [Compound 227-p3],MIC,[1],> 50 µM
same,MIC,[16]; [22],> 50 µM
O=C(Nc1ccc(Cl)c(C(F)(F)F)c1)NC1CCCCC1 [Compound 227],MIC,[1],1.56 to 3.13 µM
same,MIC,[2],1.8 µM
same,IC50,[2]; [20],1300 nM
same,MIC,[2]; [20],1.8 µM
same,MIC90,[2]; [20],2.5 µM
same,competition of 227-p1 labelling of EphF and EphD,[4],strongly out-competed; also recorded: out-competed
same,membrane disruption (propidium iodide entry),[9],Neither 227 nor 21 disrupt the membrane
same,EphF inhibition,[10],strong inhibition
same,IC50,[11]; [21],15 to 37 µM
same,Clearance,[13],fast clearance
same,bioavailability,"[14]; po, 25 mg/kg",8.6%
same,solubility kinetic at 5 min,[6],55 µM
O=C(Nc1cc(C(F)(F)F)cc(C(F)(F)F)c1)Nc1ccc(Cl)c(OC(F)(F)F)c1 [Compound 275],MIC,[16]; [22],0.8 µM
CC[C@@H](CO)NCCN[C@@H](CC)CO [Ethambutol],susceptibility shift in MmpL3 under-expressing strain,[17],no significant shifts
O=C(Nc1ccc2c(c1)OC(F)(F)O2)Nc1ccc(Cl)c(C(F)(F)F)c1 [PK150],MIC,[16],3.1 µM
same,MIC against Mtb,[18],6.25 µM
same,modulation of LepB activity,[19],not a target; also recorded: did not show any inhibition
"CC(C)=CCC/C(C)=C/CNCCNC1C2CC3CC(C2)CC1C3 (centres unmarked) [SQ109, reference compound]",dysregulated in FP?,"[8]; full proteome (FP), protein Rv3587c (O53572), probable conserved membrane protein",slightly upregulated with SQ109 treatment
